Read-outs that look alike come from different tables or passages of the source.
How the values were obtained:
[1] = test system: R848-induced TNFα production by human peripheral blood mononuclear cells (PBMCs); test: R848 Induced TNFα in Human PBMC Assay; type: cell-based
From the text: R848 Induced TNFα in Human PBMC Assay.
This protocol is for R848-induced TNFα production by human peripheral blood mononuclear cells (PBMCs). […] The assay is used to assess cell-based potency of small molecule inhibitors of IRAK4 in the absence of serum.
The PBMCs in the interphase layer were collected and washed with PBS via centrifugation multiple times until the supernatant is clear. The purified PBMCs were re-suspended in RPMI (Roswell Park Memorial Institute) media (Sigma-Aldrich).
For the assay, a compound dilution plate containing a top concentration of 4 mM compound in DMSO was serially diluted 4-fold for 11 times. 250 nL of the compound dilution plate was spotted into a 384-well, flat bottom with IId, TC-treated, black with clear bottom, sterile, polystyrene plate (Corning Life Sciences).
10 μL of anti-TNFα antibody labeled with MSD SULFO-TAG at 50 μg/mL was added to each well and allowed to incubate overnight at 4° C. […] The plates were then imaged on an MSD Sector Imager 6000.

[2] = test system: collagen-induced arthritis (hind paw volume); test: In Vivo Rat Collagen-Induced Arthritis Model; settings: Lewis rat
Protocol: In Vivo Rat Collagen-Induced Arthritis Model.
Efficacy of IRAK4 compounds of the present invention was also evaluated in a rat in vivo model of rheumatoid arthritis (M. Hegen, J. C. Keith, Jr, M. Collins, C. L. Nickerson-Nutter, Ann. Rheum. Dis. 2008, 67, 1505-1515). An exemplary protocol for this in vivo model follows.
Female Lewis rats, approximately 7 weeks old, were immunized with an emulsion of type II collagen (CII) and incomplete Freund's adjuvant (IFA) on day 0 and received a boost of CII/IFA on day 7. Hind paw volume increase was taken by plethysmograph. Animals were randomly enrolled into treatment groups based on the development of disease. Beginning on day 11 post immunization, rats were enrolled into random treatment groups based on an increase in a single hind paw volume compared to day 7 post immunization baseline measurements.
Ten rats were enrolled per treatment group with the exception of the naive control group, which contained two rats. Day 0 was designated as the first treatment day, and paw measurements are taken daily by plethysmograph. The rats were weighed on a daily basis.
IRAK4 inhibitors are efficacious in the Lewis rat model of collagen-induced arthritis.

[3] = target: human IRAK4 FL (Full Length) (Homo sapiens (Human), UniProt Q9NWZ3); test: IRAK4 Enzymatic DELFIA Assay, Protocol A; type: biochemical; settings: 0.6 mM ATP
human IRAK4 FL (Full Length), sequence (Q9NWZ3 whole entry): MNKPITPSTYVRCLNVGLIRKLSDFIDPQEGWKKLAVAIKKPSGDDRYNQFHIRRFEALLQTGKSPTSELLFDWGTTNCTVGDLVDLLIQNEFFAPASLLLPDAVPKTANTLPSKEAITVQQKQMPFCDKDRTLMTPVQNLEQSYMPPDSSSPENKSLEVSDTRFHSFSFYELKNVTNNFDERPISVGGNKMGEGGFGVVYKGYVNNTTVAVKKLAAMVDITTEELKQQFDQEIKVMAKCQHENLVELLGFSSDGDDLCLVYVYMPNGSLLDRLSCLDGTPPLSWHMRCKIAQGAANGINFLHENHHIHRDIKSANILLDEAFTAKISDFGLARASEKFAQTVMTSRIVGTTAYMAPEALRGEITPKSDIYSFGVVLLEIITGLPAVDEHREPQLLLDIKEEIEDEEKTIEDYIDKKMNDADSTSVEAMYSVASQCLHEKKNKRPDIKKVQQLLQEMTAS

[4] = human PBMC, absence of serum, read-out: R848-induced TNFa PBMC IC50
[5] = Homo sapiens, PBMC, read-out: R848-induced TNFa PBMC IC50 (nM)

Question: With `COc1cc2c(OC[C@H]3NC(=O)[C@H]4C3[C@H]4CF)nccc2cc1C(N)=O` (stereo in doubt) [Example 303, 1-(((1S,2S,5S,6R)-6-(fluoromethyl)-4-oxo-3-azabicyclo[3.1.0]hexan-2-yl)methoxy)-7-methoxyisoquinoline-6-carboxamide] as the molecule, how does the IC50 [1, 4] read?
Answer: 6050 nM

Question: For `Cc1ccc(-n2nc(C(C)(C)C)cc2NC(=O)Nc2ccc(OCCN3CCOCC3)c3ccccc23)cc1` [BIRB796, reference compound], which “days with significant reduction of hind paw swelling in CIA rats (t-test, p<0.05 vs. vehicle)” value ([2]; 30 mg/kg PO, QD, positive control (p38 inhibitor)) is on record?
Answer: Day 1-Day 8

Question: How did the “days with significant reduction of hind paw swelling in CIA rats (t-test, p<0.05 vs. vehicle)” value ([2]; 30 mg/kg PO, BID, therapeutic treatment for 8 days) turn out when `CC(C)Oc1cc2c(OC[C@@H]3CCC(=O)N3)nccc2cc1C(N)=O` [Example 26, 1-{[(2S)-5-oxopyrrolidin-2-yl]methoxy}-7-(propan-2-yloxy)isoquinoline-6-carboxamide] was run?
Answer: Day 2-Day 8

Question: And the “days with significant reduction of hind paw swelling in CIA rats (t-test, p<0.05 vs. vehicle)” value ([2]; 100 mg/kg PO, BID, therapeutic treatment for 8 days)?
Answer: Day 1-Day 8 (end)

Question: And the “hind paw swelling in CIA rats” value ([2]; 10 mg/kg PO, BID)?
Answer: transiently significant reduction in hind paw swelling only on Day 5 and Day 6 post treatment

Question: What about the “hind paw swelling in CIA rats” value ([2]; therapeutic treatment BID daily for 8 days, t-test p<0.05 vs. vehicle) of the same molecule?
Answer: reduced the hind paw swelling in CIA rats significantly

Question: `COc1cc2c(OC[C@@H]3C[C@@](F)(CC(F)(F)F)C(=O)N3)cccc2cc1C(N)=O` [Example 240, 5-{[(2S,4R)-4-fluoro-5-oxo-4-(2,2,2-trifluoroethyl)pyrrolidin-2-yl]methoxy}-3-methoxynaphthalene-2-carboxamide] was tested. Which IC50 [3] did it give?
Answer: 2.3 nM

Question: For `COc1cc2c(OC[C@@H]3C[C@](F)(CC(F)(F)F)C(=O)N3)cccc2cc1C(N)=O` [Example 241, 5-{[(2S,4S)-4-fluoro-5-oxo-4-(2,2,2-trifluoroethyl)pyrrolidin-2-yl]methoxy}-3-methoxynaphthalene-2-carboxamide], which IC50 [3] is on record?
Answer: 161 nM

Question: How did the IC50 [1, 5] turn out when `COc1cc2c(OC[C@H]3C[C@@H](F)C(=O)N3)nccc2cc1C(N)=O` [Example 275, 1-{[(2R,4R)-4-fluoro-5-oxopyrrolidin-2-yl]methoxy}-7-methoxyisoquinoline-6-carboxamide] was run?
Answer: 5140 nM

Question: And the IC50 [3]?
Answer: 119 nM

Question: With `C[C@@H]1[C@H](F)C(=O)N[C@@H]1COc1nccc2cc(C(N)=O)c(OC3CC3)cc12` [Example 281, 7-(cyclopropyloxy)-1-{[(2S,3S,4S)-4-fluoro-3-methyl-5-oxopyrrolidin-2-yl]methoxy}isoquinoline-6-carboxamide] as the molecule, how does the IC50 [1, 5] read?
Answer: 127 nM

Question: `COc1cc2c(OC[C@H]3NC(=O)[C@@H]4[C@@H](CF)[C@@H]43)nccc2cc1C(N)=O` [Example 304, 1-{[(1R,2S,5S)-6-(fluoromethyl)-4-oxo-3-azabicyclo[3.1.0]hex-2-yl]methoxy}-7-methoxyisoquinoline-6-carboxamide] was tested. Which IC50 [1, 4] did it give?
Answer: 35 nM

Source: patent US10793579B2, “Bicyclic-fused heteroaryl or aryl compounds” (Pfizer Inc., priority 2014, dated 2020)
